Source: US12239641B2, “Methods of treating or preventing fibrosis in non-alcoholic fatty liver disease” (priority 2018, dated 2025)
“Also recorded” adds a separate entry of the source. Each block holds one compound with its values, some of them ahead of it.

Experiments:
[1] = molecular target: T1, ADRA2a (Homo sapiens, UniProt P08913); conditions: some affinity for all; cited from earlier work
T1 sequence (P08913 1-465): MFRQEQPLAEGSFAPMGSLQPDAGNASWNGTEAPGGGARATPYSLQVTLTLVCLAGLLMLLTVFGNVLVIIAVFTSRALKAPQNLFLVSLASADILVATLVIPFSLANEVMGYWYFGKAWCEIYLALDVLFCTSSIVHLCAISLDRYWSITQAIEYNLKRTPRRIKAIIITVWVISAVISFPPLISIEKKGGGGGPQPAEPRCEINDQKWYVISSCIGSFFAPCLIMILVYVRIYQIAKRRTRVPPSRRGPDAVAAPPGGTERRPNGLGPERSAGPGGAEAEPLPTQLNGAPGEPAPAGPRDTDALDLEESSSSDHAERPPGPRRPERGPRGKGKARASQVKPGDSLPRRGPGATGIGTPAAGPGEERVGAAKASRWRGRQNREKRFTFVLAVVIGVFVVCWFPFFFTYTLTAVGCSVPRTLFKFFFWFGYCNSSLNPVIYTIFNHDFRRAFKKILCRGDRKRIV

[2] = tested on: Primary human hepatic stellate cells; experiment: 3D collagen gel contraction of hepatic stellate cells; assay type: cell-based; conditions: 6 hours
Source text: Primary human HSCs (huHSC) were isolated from wedge sections of liver tissue obtained from patients with no history of liver disease undergoing liver resection for colorectal metastasis in the Royal Free Hospital, with local Tissue act for patient benefit ethics approval. All the participants provided written informed consent in accordance with the Helsinki Declaration.
Cells isolation in brief: 10 g of total human liver tissue was digested with 0.01% Collagenase, 0.05% Pronase and 0.001% DNase I without performing perfusion. The homogenate was filtered through a 100 µm cell strainer (BD Biosciences) and the flow-through was centrifuged at 50×g for 2 minutes at 4° C. After washing the supernatant, gradient centrifugation was performed at 1400×g for 17 minutes at 4° C. using an 11.5% Optiprep gradient (Sigma-Aldrich Company Ltd.). Finally, the interface was collected and washed. […]
Human and rat HSCs were cultured within 3D collagen gels (Fibroblast-populated collagen lattices; FPCL). […] Gel areas were measured using ImageJ v1.49 software (US National Institutes of Health, Bethesda MD, USA, http://imagej.nih.gov/ij/).

[3] = compared with Yohimbine; cited from earlier work
[4] = tested on: rat model of NASH induced by a high fat high cholesterol (HFHC) diet; experiment: Rat model of NASH induced by HFHC diet: liver weight, fat, AST, histology scores, fibrosis; assay type: in vivo, Sprague Dawley rats
Source text: (§1) Animals were studied after 16 weeks of feeding.

[5] = tested on: Genes involved in fibrogenesis (TIMP-1 and Collal), MMP2; experiment: Expression of genes involved in fibrogenesis in HFHC NASH rats; assay type: in vivo, Sprague Dawley rats
Source text: as §1

[6] = tested on: cytokines and chemokines (Cx3CL1, CxCL5, CCL3); experiment: Cytokines and chemokines (ELISA) in HFHC NASH rats; assay type: in vivo, Sprague Dawley rats
Source text: as §1

[7] = tested on: working memory; experiment: Working memory test in HFHC NASH rats; assay type: in vivo, Sprague Dawley rats; conditions: HFHC diet 16 weeks, Yohimbine for the last 8 weeks vs placebo
Source text: as §1
Working memory and behavioural testing was through standard psychometric assessments before termination, such as application of the Barnes Maze.

[8] = tested on: noradrenaline (Norepinephrine—NE); experiment: Noradrenaline levels (HPLC) in HFHC NASH rats; assay type: in vivo, Sprague Dawley rats; conditions: HFHC+YoHCl vs HFHC
Source text: as §1

[9] = tested on: ADRA2A receptors; conditions: HFHC+YoHCl vs HFHC
Description: Sprague Dawley rats (240-300 g) were randomly divided into 3 groups (Standard diet, HFHC+placebo, HFHC+Yohimbine). The animals were kept under controlled temperature (20±2° C.) and light (lights on at 08:00-20:00). The standard diet was composed of the following energy sources: 67 g carbohydrates (70 kcal %), 4 g fat (10 kcal %), and 19 g protein (20 kcal %) per 100 g diet. The HFC diet contained 19 g carbohydrates (15 kcal %), 39 g fat (65 kcal %), 2 g cholesterol, and 27 g protein (20 kcal %) per 100 g diet. The study was performed in accordance with local and national guidelines for animal welfare and approved by the institutional Animal Ethics Committee.
Animals were studied after 16 weeks of feeding. Animals in the HFHC group were randomised after 8 weeks of feeding to either treatment with placebo or Yohimbine, in addition to their ongoing diets. Yohimbine Hydrochloride (Product Number Y3125, Sigma-Aldrich, Dorset, UK), an ADRA2A antagonist, was administered in the drinking water at a dosage of 0.4 mg/kg rat/day. In the placebo treated group, an equivalent volume of water was administered. The rats were weighed daily and the Yohimbine treatment weight adjusted.
At the end of 16 weeks of feeding, rats were exsanguinated and the blood and tissues harvested and stored at −80 C for subsequent analyses. […]

[10] = H&E liver, HFHC+YoHCl (n=9) vs HFHC (n=6), 8 weeks treatment
[11] = HFHC model, Yohimbine therapy for 8 weeks, p=0.03

SMILES: COC(=O)[C@H]1[C@H]2C[C@H]3c4[nH]c5ccccc5c4CCN3C[C@H]2CC[C@@H]1O [Rauwolscine]
selectivity among ADRA2 subtypes [1]: most selective for ADRA2a

SMILES: CC1c2ccccc2CN1CC1=NCCN1 (stereo not shown) [BRL44408]
contraction in a 3D collagen gel ([2]; 5 uM Guanfacine and 5 uM BRL44408 vs guanfacine alone): less contraction

SMILES: COC(=O)[C@@H]1[C@H]2C[C@H]3c4[nH]c5cc(O)ccc5c4CCN3C[C@@H]2CC[C@@H]1O [11-OH Yohimbine]
half life [3]: longer half life
oral bioavailability [3]: better oral bioavailability

ADRA2A receptor expression in liver tissue [9]: does not significantly reduce
SMILES: COC(=O)[C@@H]1[C@H]2C[C@H]3c4[nH]c5ccccc5c4CCN3C[C@@H]2CC[C@@H]1O [Yohimbine]
hepatic inflammation score [4, 10]: significant reduction
hepatic steatosis score [4, 10]: significant reduction
hepatocyte ballooning score [4, 10]: significant reduction
non-alcoholic fatty liver disease (NAFLD) activity score (NAS) [4, 10]: significant reduction
fibrosis (Picro sirius red stained liver) ([4]; HFHC NASH rats with Yohimbine vs without treatment): visually decreased
Collagen proportionate area (CPA) ([4]; HFHC NASH rats with Yohimbine vs without treatment, n=6 per group, HFHCD vs HFHCD_YoHCl p=0.016): reduced
liver fat ([4]; HFHC diet 16 wks, Yohimbine for last 8 weeks): reduced
Liver-body weight ratio ([4]; HFHC diet 16 wks, Yohimbine for last 8 weeks, 0.4 mg/kg rat/day in drinking water, HFHCD vs HFHCD_YoHCl p=0.014): restored
AST (liver injury) ([4]; HFHC rats after 8 weeks of Yohimbine therapy, HFHCD vs HFHCD_YoHCl p=0.007): decreased
Collal gene expression [5, 11]: significantly (p=0.03 for both) reduced
TIMP-1 gene expression [5, 11]: significantly (p=0.03 for both) reduced
MMP2 expression ([5]; HFHC rats, Yohimbine hydrochloride therapy): reduced
CCL3 protein expression ([6]; HFHC+YoHCl (8 weeks) vs HFHC): decrease markedly
Cx3CL1 protein expression ([6]; HFHC+YoHCl (8 weeks) vs HFHC): decrease markedly
CxCL5 protein expression ([6]; HFHC+YoHCl (8 weeks) vs HFHC): decrease markedly
cytokines and chemokines (liver and systemic inflammation) ([6]; HFHCD_YoHCl vs HFHCD, 16 weeks diet): reduced liver and systemic inflammation
working memory [7]: significantly improved; also recorded: improves
Levels of noradrenaline (NE) [8]: further but non-statistical increase
selectivity among ADRA2 subtypes [1]: most selective for ADRA2a

SMILES: N=C(N)NC(=O)Cc1c(Cl)cccc1Cl [Guanfacine]
contraction in a 3D collagen gel ([2]; 5 uM Guanfacine vs serum free medium): significantly greater contraction
